Reference: the NIST ThermoML archive (doi:10.1021/je060271a)

Conditions: Liquid, Vibrating tube method

CCCC(=O)OCC(COC(=O)CCC)(COC(=O)CCC)COC(=O)CCC [pentaerythritol tetrabutyrate]
Conditions	mass density [kg/m3]
283.15 K, 30442 kPa	1076
283.15 K, 30478 kPa	1076.1
283.15 K, 30509 kPa	1076
283.15 K, 30540 kPa	1076.1
283.15 K, 30577 kPa	1076.1
283.15 K, 30608 kPa	1076.1
283.15 K, 30639 kPa	1076.1
283.15 K, 30670 kPa	1076.1
283.15 K, 30707 kPa	1076.1
283.15 K, 30738 kPa	1076.1
283.15 K, 30775 kPa	1076.2
283.15 K, 30806 kPa	1076.3
283.15 K, 30838 kPa	1076.2
283.15 K, 30875 kPa	1076.1
283.15 K, 30906 kPa	1076.2
283.15 K, 30938 kPa	1076.3
283.15 K, 30975 kPa	1076.3
283.15 K, 31008 kPa	1076.3
283.15 K, 31040 kPa	1076.3
283.15 K, 31071 kPa	1076.3
283.15 K, 31110 kPa	1076.4
283.15 K, 31141 kPa	1076.4
283.15 K, 31179 kPa	1076.4
283.15 K, 31211 kPa	1076.3
283.15 K, 31243 kPa	1076.4
283.15 K, 31282 kPa	1076.4
283.15 K, 31314 kPa	1076.4
283.15 K, 31346 kPa	1076.4
283.15 K, 31385 kPa	1076.5
283.15 K, 31418 kPa	1076.6
283.15 K, 31450 kPa	1076.4
283.15 K, 31490 kPa	1076.5
283.15 K, 31523 kPa	1076.5
283.15 K, 31556 kPa	1076.5
283.15 K, 31595 kPa	1076.5
283.15 K, 31628 kPa	1076.7
283.15 K, 31662 kPa	1076.7
283.15 K, 31695 kPa	1076.6
283.15 K, 31735 kPa	1076.6
283.15 K, 31768 kPa	1076.7
283.15 K, 31807 kPa	1076.7
283.15 K, 31841 kPa	1076.9
283.15 K, 31875 kPa	1076.7
283.15 K, 31909 kPa	1076.8
283.15 K, 31949 kPa	1076.8
283.15 K, 31983 kPa	1076.9
283.15 K, 32023 kPa	1076.9
283.15 K, 32057 kPa	1076.8
283.15 K, 32092 kPa	1076.8
283.15 K, 32133 kPa	1076.8
283.15 K, 32167 kPa	1076.9
283.15 K, 32202 kPa	1076.9
283.15 K, 32236 kPa	1076.9
283.15 K, 32278 kPa	1077
283.15 K, 32312 kPa	1076.9
283.15 K, 32347 kPa	1077
283.15 K, 32390 kPa	1077
283.15 K, 32417 kPa	1077.1
283.15 K, 32453 kPa	1077.1
283.15 K, 32494 kPa	1077.2
283.15 K, 32536 kPa	1077.1
283.15 K, 32572 kPa	1077.1
283.15 K, 32614 kPa	1077.1
283.15 K, 32650 kPa	1077
283.15 K, 32692 kPa	1077.2
283.15 K, 32728 kPa	1077.1
283.15 K, 32764 kPa	1077.2
283.15 K, 32806 kPa	1077.1
283.15 K, 32845 kPa	1077.2
283.15 K, 32881 kPa	1077.2
283.15 K, 32918 kPa	1077.2
283.15 K, 32954 kPa	1077.3
283.15 K, 32998 kPa	1077.3
283.15 K, 33034 kPa	1077.2
283.15 K, 33071 kPa	1077.4
283.15 K, 33114 kPa	1077.3
283.15 K, 33151 kPa	1077.4
283.15 K, 33188 kPa	1077.3
283.15 K, 33232 kPa	1077.5
283.15 K, 33270 kPa	1077.5
283.15 K, 33308 kPa	1077.4
283.15 K, 33355 kPa	1077.6
283.15 K, 33391 kPa	1077.5
283.15 K, 33429 kPa	1077.5
283.15 K, 33473 kPa	1077.6
283.15 K, 33511 kPa	1077.5
283.15 K, 33548 kPa	1077.5
283.15 K, 33586 kPa	1077.6
283.15 K, 33631 kPa	1077.7
283.15 K, 33670 kPa	1077.7
283.15 K, 33708 kPa	1077.7
283.15 K, 33754 kPa	1077.7
283.15 K, 33792 kPa	1077.6
283.15 K, 33838 kPa	1077.7
283.15 K, 33878 kPa	1077.8
283.15 K, 33917 kPa	1077.8
283.15 K, 34179 kPa	1077.9
283.15 K, 34232 kPa	1078
283.15 K, 34278 kPa	1078
283.15 K, 34325 kPa	1078
283.15 K, 34380 kPa	1078.1
283.15 K, 34408 kPa	1078.1
283.15 K, 34413 kPa	1078.1
283.15 K, 34443 kPa	1078.1
283.15 K, 34447 kPa	1078.3
283.15 K, 34450 kPa	1078
283.15 K, 34451 kPa	1078
283.15 K, 34455 kPa	1078.1
283.15 K, 34530 kPa	1078.2
283.15 K, 34544 kPa	1078.1
283.15 K, 34545 kPa	1078.1
283.16 K, 104.2 kPa	1059
283.16 K, 104.7 kPa	1059.1
283.16 K, 105.7 kPa	1059
283.16 K, 107.3 kPa	1059
283.16 K, 108.9 kPa	1059.1
283.16 K, 113.9 kPa	1059
283.16 K, 119.6 kPa	1059.1
283.16 K, 129.7 kPa	1059
283.16 K, 145 kPa	1059.2
283.16 K, 173.9 kPa	1059.1
283.16 K, 201.7 kPa	1059.2
283.16 K, 220.1 kPa	1059.2
283.16 K, 241.7 kPa	1059.2
283.16 K, 261.3 kPa	1059.2
283.16 K, 284.4 kPa	1059.2
283.16 K, 305.4 kPa	1059.2
283.16 K, 329.3 kPa	1059.3
283.16 K, 363.7 kPa	1059.2
283.16 K, 391.3 kPa	1059.1
283.16 K, 432.3 kPa	1059.2
283.16 K, 466.5 kPa	1059.2
283.16 K, 498.2 kPa	1059.2
283.16 K, 527.5 kPa	1059.2
283.16 K, 550.1 kPa	1059.3
283.16 K, 577.4 kPa	1059.3
283.16 K, 602.2 kPa	1059.4
283.16 K, 628.6 kPa	1059.3
283.16 K, 657.3 kPa	1059.4
283.16 K, 694.8 kPa	1059.2
283.16 K, 725.1 kPa	1059.3
283.16 K, 756.3 kPa	1059.4
283.16 K, 786.4 kPa	1059.4
283.16 K, 816.8 kPa	1059.4
283.16 K, 854 kPa	1059.4
283.16 K, 886.5 kPa	1059.4
283.16 K, 919.6 kPa	1059.5
